From patent US3985875A, “ω-(N-acylamino)alkylphosphoryl ethanolamines, pharmaceutical compositions containing them, and their uses” (Dainippon Pharmaceutical Co., Ltd., priority 1974, dated 1976)
Where two headings read alike, the source gives them in different places.

Assays:
renal hypertensive rats [1] = test: Antihypertensive activity in renal hypertensive rats, i.m. (Table 3); format: in vivo, rat; settings: 30 mg/kg/day i.m.
Experimental: (§1) An aqueous solution or suspension in peanut oil of each test compound as administered intramuscularly (i.m.) or orally (p.o.) at a dose of 30 to 100 mg/kg (body weight)/day once every morning over the period of 6 to 7 days.
(§2) The blood pressure of each rat was measured daily before and 5 hours after each administration. Furthermore, the blood pressure was measured every morning after drug withdrawal over a period of 3 to 6 days.
(§3) Test compounds (1)-(4) decreased the blood pressure of renal hypertensive rats with a dose of 30 mg/kg/day i.m.. […] The antihypertensive rats with a dose of 100 mg/kg/day p.o..

Renin = target: T1, Renin (Homo sapiens, UniProt P00797); test: Renin-inhibitory activity, Method I (inhibition of Angiotensin I formation, RIA); format: biochemical; settings: for inhibition at 313 µg/mL: 0.313 mg/ml; for inhibition at 625 µg/mL: 0.625 mg/ml; for inhibition at 1250 µg/mL: 1.25 mg/ml; for inhibition at 2500 µg/mL: 2.5 mg/ml
T1 sequence (P00797 67-406): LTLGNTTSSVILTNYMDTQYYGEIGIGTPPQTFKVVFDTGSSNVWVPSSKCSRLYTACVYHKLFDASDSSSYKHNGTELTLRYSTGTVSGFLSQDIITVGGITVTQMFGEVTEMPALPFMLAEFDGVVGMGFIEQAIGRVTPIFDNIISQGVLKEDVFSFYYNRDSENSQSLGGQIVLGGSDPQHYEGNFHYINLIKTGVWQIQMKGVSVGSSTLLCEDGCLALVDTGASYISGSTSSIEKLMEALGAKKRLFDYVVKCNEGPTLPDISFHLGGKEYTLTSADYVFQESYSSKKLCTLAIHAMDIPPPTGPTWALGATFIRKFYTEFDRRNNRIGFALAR
Experimental: Renin (see E. Haas et al. Circulation Research, Vol. 19, p. 739, 1966 and Vol. 31, p. 65, 1972) was incubated in Angiotensinogen at 37° C. for 2 to 6 hours. Similarly, renin was incubated under the same conditions in the presence of 0.313 to 2.5 mg/ml. of each of the test compounds listed above. The amount of Angiotensin I was measured by radioimmunoassay (RIA) (E. Haber et al., J. Clin. Endocrinol., Vol. 29, p. 1349, 1969), and made the renin activity.
(§4) The results are shown in Table 1 (the rate of inhibiting the formation of Angiotensin I, as determined by Method I, when the plasma was incubated at 37° C. for 2, 4 and 6 hours respectively), and Table 2 (the rate of inhibiting the formation of Angiotensin I when the plasma was incubated at 37° C. for 4 hours, with the compound concentration of 1.25 mg/ml.)

High renin plasma = target: T2, High renin plasma (Canis lupus familiaris, UniProt Q6DYE7); test: Renin-inhibitory activity, Method II (high renin plasma of dog, inhibition of Angiotensin I formation); format: biochemical; settings: Table 2; 37°C, 4 hours, 1.25 mg/ml; read-out: Rate of inhibiting the formation of Angiotensin I determined by Method II
T2 construct: High renin plasma prepared by constriction of the renal artery of a dog anesthetized with Nembutal; from tissue; host or cells: plasma of a dog with constricted renal artery
T2 sequence (Q6DYE7 66-403): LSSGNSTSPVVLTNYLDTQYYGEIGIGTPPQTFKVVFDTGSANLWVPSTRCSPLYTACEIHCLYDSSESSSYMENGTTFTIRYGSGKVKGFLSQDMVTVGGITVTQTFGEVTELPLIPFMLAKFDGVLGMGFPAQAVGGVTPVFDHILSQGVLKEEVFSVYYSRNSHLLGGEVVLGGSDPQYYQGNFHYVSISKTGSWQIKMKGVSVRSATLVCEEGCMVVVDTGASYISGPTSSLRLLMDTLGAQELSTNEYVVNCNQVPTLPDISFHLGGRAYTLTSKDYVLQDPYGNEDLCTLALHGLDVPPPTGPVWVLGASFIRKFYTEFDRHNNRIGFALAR
Experimental: High renin plasma prepared by constriction of the renal artery of a dog anesthetized with Nembutal (the plasma which when incubated at 37°40 C. for 6 hours, yields 30 to […]. of Angiotensin I) was incubated at 37° C. for 2 to 6 hours in the same way as in Method I, and also under the same conditions in the presence of 1.25 mg/ml. of each of the test compounds.
as §4

renal hypertensive rats [2] = test: Antihypertensive activity in rats, p.o. (Table 4); format: in vivo, rat; settings: 100 mg/kg/day p.o.
Experimental: as §1, §2, §3

plasma cholesterol level = test: Cholesterol-lowering activity in rats (modified Greenberg method); format: in vivo, rat; settings: 100 mg/Kg oral once a day, 5 consecutive days
Experimental: The effect of each of the test compounds on the plasma cholesterol level was examined in rats according to a slightly modified form of the C. M. Greenberg et al. method described in Am. J. Physiol., Vol. 202 (1961), p. 732. Rats were treated once a day with a 100 mg/Kg oral dose for 5 consecutive days instead of 7 days.

[3] = 1st day, 0 h (immediately before administration)
[4] = 1st day, 5 hours after administration
[5] = 2nd day, 0 h (immediately before administration)
[6] = 2nd day, 5 hours after administration
[7] = 3rd day, 0 h (immediately before administration)
[8] = 3rd day, 5 hours after administration
[9] = 4th day, 0 h (immediately before administration)
[10] = 4th day, 5 hours after administration
[11] = 5th day, 0 h (immediately before administration)
[12] = 5th day, 5 hours after administration
[13] = 6th day, 0 h (immediately before administration)
[14] = 6th day, 5 hours after administration
[15] = incubating time 2 hours, read-out: Rate of inhibiting the formation of Angiotensin I
[16] = incubating time 4 hours, read-out: Rate of inhibiting the formation of Angiotensin I
[17] = incubating time 6 hours, read-out: Rate of inhibiting the formation of Angiotensin I
[18] = Table 2, 37°C, 4 hours, read-out: Rate of inhibiting the formation of Angiotensin I determined by Method I
[19] = 7th day, 0 h (immediately before administration)
[20] = 7th day, 5 hours after administration

inhibition at 313 µg/mL (Renin; [15]) | inhibition at 313 µg/mL (Renin; [16]) | inhibition at 313 µg/mL (Renin; [17]) | inhibition at 625 µg/mL (Renin; [15]) | inhibition at 625 µg/mL (Renin; [16]) | inhibition at 625 µg/mL (Renin; [17]) | inhibition at 1250 µg/mL (Renin; [15]) | inhibition at 1250 µg/mL (Renin; [16]) | inhibition at 1250 µg/mL (Renin; [17]) | inhibition at 2500 µg/mL (Renin; [15]) | inhibition at 2500 µg/mL (Renin; [16]) | inhibition at 2500 µg/mL (Renin; [17]) | inhibition at 1250 µg/mL (Renin; [18]) | inhibition at 1250 µg/mL (High renin plasma) | Structure (SMILES) | Changes of blood pressure after drug withdrawal (renal hypertensive rats [2]; 1st day after withdrawal) | Changes of blood pressure (renal hypertensive rats [2]; [3]) | Changes of blood pressure (renal hypertensive rats [2]; [4]) | Changes of blood pressure after drug withdrawal (renal hypertensive rats [2]; 2nd day after withdrawal) | Changes of blood pressure (renal hypertensive rats [2]; [6]) | Changes of blood pressure after drug withdrawal (renal hypertensive rats [2]; 3rd day after withdrawal) | other results
25% | 27% | 22% | 50% | 45% | 47% | 75% | 78% | 80% | 93% | 100% | 100% | 78% | 59% | CCC=CCC=CCC=CCCCCCCCC(=O)NCCCOP(=O)(O)OCCN [Compound (2), 3-(Octadeca-9,12,15-trienoylamino)propylphosphoryl ethanolamine] |  |  |  |  |  |  | Changes of blood pressure after drug withdrawal (renal hypertensive rats [1]; 1st day after withdrawal): -34 mmHg; Changes of blood pressure (renal hypertensive rats [1]; [3]): 0 mmHg; Changes of blood pressure (renal hypertensive rats [1]; [4]): -17 mmHg; Changes of blood pressure after drug withdrawal (renal hypertensive rats [1]; 2nd day after withdrawal): -21 mmHg; Changes of blood pressure (renal hypertensive rats [1]; [5]): -1 mmHg; Changes of blood pressure (renal hypertensive rats [1]; [6]): -26 mmHg; Changes of blood pressure after drug withdrawal (renal hypertensive rats [1]; 3rd day after withdrawal): -7 mmHg; Changes of blood pressure (renal hypertensive rats [1]; [7]): -20 mmHg; Changes of blood pressure (renal hypertensive rats [1]; [8]): -31 mmHg; Changes of blood pressure (renal hypertensive rats [1]; [9]): -22 mmHg; Changes of blood pressure (renal hypertensive rats [1]; [10]): -34 mmHg; Changes of blood pressure (renal hypertensive rats [1]; [11]): -23 mmHg; Changes of blood pressure (renal hypertensive rats [1]; [12]): -39 mmHg; Changes of blood pressure (renal hypertensive rats [1]; [13]): -29 mmHg; Changes of blood pressure (renal hypertensive rats [1]; [14]): -44 mmHg
0% | 33% | 40% | 50% | 50% | 53% | 75% | 80% | 80% | 100% | 93% | 92% | 78% | 56% | NCCOP(=O)(O)OCCNC(=O)COc1ccc(Oc2ccc(Cl)cc2)cc1 [Compound (5), 2-[4-(4'-chlorophenoxy)phenoxyacetylamino]ethylphosphoryl ethanolamine] | -49 mmHg | 0 mmHg | +1 mmHg | -34 mmHg | -9 mmHg | -26 mmHg | Changes of blood pressure (renal hypertensive rats [2]; [7]): -17 mmHg; Changes of blood pressure (renal hypertensive rats [2]; [8]): -44 mmHg; Changes of blood pressure after drug withdrawal (renal hypertensive rats [2]; 4th day after withdrawal): -21 mmHg; Changes of blood pressure (renal hypertensive rats [2]; [9]): -21 mmHg; Changes of blood pressure (renal hypertensive rats [2]; [10]): -41 mmHg; Changes of blood pressure after drug withdrawal (renal hypertensive rats [2]; 5th day after withdrawal): -15 mmHg; Changes of blood pressure (renal hypertensive rats [2]; [11]): -34 mmHg; Changes of blood pressure (renal hypertensive rats [2]; [12]): -43 mmHg; Changes of blood pressure after drug withdrawal (renal hypertensive rats [2]; 6th day after withdrawal): -7 mmHg; Changes of blood pressure (renal hypertensive rats [2]; [13]): -37 mmHg; Changes of blood pressure (renal hypertensive rats [2]; [14]): -49 mmHg; Changes of blood pressure (renal hypertensive rats [2]; [19]): -40 mmHg; Changes of blood pressure (renal hypertensive rats [2]; [20]): -49 mmHg; Cholesterol-lowering activity (plasma cholesterol level): 48.6%
25% | 33% | 33% | 50% | 56% | 53% | 75% | 78% | 67% | 100% | 93% | 89% | 78% | 55% | CC(Oc1ccc(Oc2ccc(Cl)cc2)cc1)C(=O)NCCOP(=O)(O)OCCN (stereo not drawn) [Compound (6), 2-{α-[4-(4'-chlorophenoxy)phenoxy]propionylamino} ethylphosphoryl ethanolamine] | -37 mmHg | 0 mmHg | -9 mmHg | -32 mmHg | -4 mmHg | -18 mmHg | Changes of blood pressure (renal hypertensive rats [2]; [5]): +4 mmHg; Changes of blood pressure (renal hypertensive rats [2]; [7]): -14 mmHg; Changes of blood pressure (renal hypertensive rats [2]; [8]): -25 mmHg; Changes of blood pressure after drug withdrawal (renal hypertensive rats [2]; 4th day after withdrawal): -8 mmHg; Changes of blood pressure (renal hypertensive rats [2]; [9]): -18 mmHg; Changes of blood pressure (renal hypertensive rats [2]; [10]): -27 mmHg; Changes of blood pressure after drug withdrawal (renal hypertensive rats [2]; 5th day after withdrawal): -2 mmHg; Changes of blood pressure (renal hypertensive rats [2]; [11]): -27 mmHg; Changes of blood pressure (renal hypertensive rats [2]; [12]): -41 mmHg; Changes of blood pressure after drug withdrawal (renal hypertensive rats [2]; 6th day after withdrawal): +1 mmHg; Changes of blood pressure (renal hypertensive rats [2]; [13]): -34 mmHg; Changes of blood pressure (renal hypertensive rats [2]; [14]): -47 mmHg; Changes of blood pressure (renal hypertensive rats [2]; [19]): -36 mmHg; Changes of blood pressure (renal hypertensive rats [2]; [20]): -51 mmHg; Cholesterol-lowering activity (plasma cholesterol level): 48.1%
